Bounds are passed on as bounds.

Experiment [1] has as its system Rattus norvegicus. The experiment in a line: Analgesic activity in Sprague-Dawley rat brewer's yeast treated foot assessed as response threshold at 32 mg/kg, po. The experiment is classed as functional.
Experiment [2] concerns Rattus norvegicus. The experiment in a line: Analgesic activity in Sprague-Dawley rat normal foot assessed as response threshold at 32 mg/kg, po. It is filed as functional.

`Cc1cnc2c(c1)[nH]c(=O)n2-c1ccccc1F`: the Activity in the experiment with Rattus norvegicus [1] was 25 mm; with Rattus norvegicus [2], <40 mm.

Turning to `CC(C)CCn1c(=O)n(-c2ccc3c(c2)OCO3)c2ncccc21`, the values for the Activity with Rattus norvegicus [1] and in the experiment with Rattus norvegicus [2] were <25 mm and <40 mm, respectively.

Consider `O=c1[nH]c2cccnc2n1Cc1ccc2c(c1)OCO2`, for which the results for the Activity with Rattus norvegicus [1] and in the experiment on Rattus norvegicus [2] were <25 mm and <40 mm, respectively.

`C=CCn1c(=O)n(-c2ccc3c(c2)COCO3)c2ncccc21`: the Activity is <25 mm with Rattus norvegicus [1] and <40 mm in the experiment on Rattus norvegicus [2].

Consider `O=c1[nH]c2cccnc2n1-c1ccc2c(c1)COCO2`, for which the Activity in the experiment on Rattus norvegicus [1] is listed as <25 mm; with Rattus norvegicus [2] it was <40 mm.

Turning to `CC(C)c1ccccc1-n1c(=O)[nH]c2cccnc21`, the Activity was <25 mm with Rattus norvegicus [1] and <40 mm with Rattus norvegicus [2].

On to `Fc1cccc(F)c1-n1nnc2cccnc21`, for which the Activity was 25 mm in the experiment on Rattus norvegicus [1] and <40 mm with Rattus norvegicus [2].

As for `COc1ccc(-n2c(=O)[nH]c3cccnc32)cc1OC`, the figures for the Activity with Rattus norvegicus [1] and in the experiment on Rattus norvegicus [2] were <25 mm and <40 mm, respectively.

As for `CCOC(=O)n1c(=O)n(-c2ccc3c(c2)OCO3)c2ncccc21`, the Activity in the experiment on Rattus norvegicus [1] was <25 mm; in the experiment on Rattus norvegicus [2] it was <40 mm.

On to `COc1ccc(-n2c(=O)[nH]c3cccnc32)c(OC)c1`, for which the values for the Activity in the experiment on Rattus norvegicus [1] and with Rattus norvegicus [2] were <25 mm and <40 mm, respectively.

Consider `O=C(C1CC1)n1c(=O)n(-c2ccc3c(c2)OCO3)c2ncccc21`, for which the Activity was <25 mm in the experiment on Rattus norvegicus [1] and <40 mm with Rattus norvegicus [2].

Take `CCOC(=O)c1cccc(-n2nnc3cccnc32)c1`: the Activity with Rattus norvegicus [1] is <25 mm; with Rattus norvegicus [2] it was <40 mm.

For the compound `CC(C)Cc1ccc(-n2c(=O)[nH]c3cccnc32)cc1`, the Activity was <25 mm in the experiment on Rattus norvegicus [1] and <40 mm with Rattus norvegicus [2].

Turning to `O=c1n(CC2CO2)c2cccnc2n1-c1ccc2c(c1)OCO2` (centres undefined), the Activity with Rattus norvegicus [1] was <25 mm; in the experiment on Rattus norvegicus [2], <40 mm.

Turning to `C=CCn1c(=O)n(-c2cccc(Cl)c2C)c2ncccc21`, the Activity with Rattus norvegicus [1] is given as <25 mm; in the experiment on Rattus norvegicus [2], <40 mm.

For the compound `CCC(C)n1c(=O)n(-c2ccc3c(c2)OCO3)c2ncccc21` (centres undefined), the Activity is <25 mm with Rattus norvegicus [1] and <40 mm with Rattus norvegicus [2].

Regarding `COC(=O)c1cnc2c(c1)[nH]c(=O)n2-c1ccccc1F`, the Activity is on record as <25 mm in the experiment on Rattus norvegicus [1] and <40 mm in the experiment on Rattus norvegicus [2].

Regarding `Clc1ccc(-n2nnc3cccnc32)c(Cl)c1`, the Activity with Rattus norvegicus [1] was <25 mm; in the experiment with Rattus norvegicus [2], 40 mm.

For the compound `O=C(O)Cc1ccc(-n2c(=O)[nH]c3cccnc32)cc1`, the Activity in the experiment with Rattus norvegicus [1] was <25 mm; in the experiment with Rattus norvegicus [2] it was <40 mm.

Regarding `CCOC(=O)Cn1c(=O)n(-c2ccc3c(c2)OCO3)c2ncccc21`, the figures for the Activity in the experiment with Rattus norvegicus [1] and in the experiment with Rattus norvegicus [2] were <25 mm and <40 mm, respectively.

As to `Cc1ccc(F)c(-n2c(=O)[nH]c3cccnc32)c1`, the Activity with Rattus norvegicus [1] is <25 mm; in the experiment on Rattus norvegicus [2], 40 mm.

As for `c1ccc(Oc2ccc(-n3nnc4cccnc43)cc2)cc1`, the Activity is <25 mm with Rattus norvegicus [1] and <40 mm with Rattus norvegicus [2].

For `O=c1n(-c2ccc3c(c2)OCO3)c2ncccc2n1S(=O)(=O)C(F)(F)F`, the Activity in the experiment with Rattus norvegicus [1] is <25 mm; with Rattus norvegicus [2], <40 mm.

With `CCCCCCn1c(=O)n(-c2ccc3c(c2)OCO3)c2ncccc21`, the Activity was 25 mm with Rattus norvegicus [1] and <40 mm with Rattus norvegicus [2].

Turning to `c1ccc(-n2nnc3cccnc32)cc1`, the Activity with Rattus norvegicus [1] is recorded as <25 mm; with Rattus norvegicus [2], <40 mm.

For the compound `O=C(O)c1ccc(-n2c(=O)[nH]c3cccnc32)cc1`, the values for the Activity in the experiment on Rattus norvegicus [1] and in the experiment on Rattus norvegicus [2] were <25 mm and <40 mm, respectively.

Consider `Cc1cccc(-n2c(=O)[nH]c3cccnc32)n1`, for which the Activity in the experiment on Rattus norvegicus [1] is <25 mm; with Rattus norvegicus [2], <40 mm.

As for `Fc1ccccc1Cn1nnc2cccnc21`, the results for the Activity in the experiment on Rattus norvegicus [1] and in the experiment with Rattus norvegicus [2] were <25 mm and <40 mm, respectively.

On to `Cc1oc2ccc(-n3c(=O)[nH]c4cccnc43)cc2c1C`, for which the Activity in the experiment with Rattus norvegicus [1] is <25 mm; with Rattus norvegicus [2], <40 mm.

As for `COc1cc(-n2c(=O)[nH]c3cccnc32)ccc1C`, the Activity in the experiment on Rattus norvegicus [1] was <25 mm; in the experiment with Rattus norvegicus [2], <40 mm.

On to `C=C(C)Cn1c(=O)n(-c2ccc3c(c2)OCO3)c2ncccc21`, for which the Activity was <25 mm in the experiment on Rattus norvegicus [1] and <40 mm in the experiment on Rattus norvegicus [2].

For `Cc1oc2ccc(-n3nnc4cccnc43)cc2c1C`, the Activity with Rattus norvegicus [1] is listed as <25 mm; with Rattus norvegicus [2], <40 mm.

As for `O=c1[nH]c2cccnc2n1-c1ccc(Oc2ccccc2)cc1`, the values for the Activity with Rattus norvegicus [1] and with Rattus norvegicus [2] were <25 mm and <40 mm, respectively.

Turning to `O=c1[nH]c2cncnc2n1-c1ccccc1F`, the figures for the Activity in the experiment on Rattus norvegicus [1] and in the experiment with Rattus norvegicus [2] were <25 mm and <40 mm, respectively.

As to `C=CC(C)n1c(=O)n(-c2ccc3c(c2)OCO3)c2ncccc21` (centres undefined), the Activity was <25 mm with Rattus norvegicus [1] and <40 mm in the experiment on Rattus norvegicus [2].

Consider `O=C(O)c1cnc2c(c1)[nH]c(=O)n2-c1ccccc1F`, for which the Activity in the experiment on Rattus norvegicus [1] is <25 mm; in the experiment on Rattus norvegicus [2], <40 mm.

Turning to `C=CCn1c(=O)n(-c2ccccc2F)c2ncccc21`, the Activity in the experiment with Rattus norvegicus [1] is 25 mm; in the experiment on Rattus norvegicus [2] it was <40 mm.

For `Clc1ccccc1-n1nnc2cccnc21`, the Activity in the experiment on Rattus norvegicus [1] is recorded as 25 mm; with Rattus norvegicus [2], <40 mm.

In the case of `C=CCn1c(=O)n(-c2ccc3c(c2)OCO3)c2ccccc21`, the figures for the Activity with Rattus norvegicus [1] and with Rattus norvegicus [2] were <25 mm and <40 mm, respectively.

`O=c1[nH]c2cccnc2n1-c1ccc(F)cc1F`: the Activity is 25 mm with Rattus norvegicus [1] and <40 mm in the experiment on Rattus norvegicus [2].

With `O=c1[nH]c2cccnc2n1-c1ccc(F)cc1`, the Activity in the experiment on Rattus norvegicus [1] was 25 mm; in the experiment with Rattus norvegicus [2] it was 40 mm.

As to `CC(=O)c1ccc(-n2nnc3cccnc32)cc1`, the Activity is given as <25 mm in the experiment on Rattus norvegicus [1] and <40 mm in the experiment with Rattus norvegicus [2].

As to `COc1ccc(-n2nnc3cccnc32)cc1`, the figures for the Activity with Rattus norvegicus [1] and in the experiment with Rattus norvegicus [2] were <25 mm and <40 mm, respectively.

Regarding `C=CCn1c(=O)n(-c2cccc3c2CCCC3)c2ncccc21`, the Activity with Rattus norvegicus [1] is listed as <25 mm; in the experiment with Rattus norvegicus [2], <40 mm.

On to `O=c1n(CCc2ccccc2)c2cccnc2n1-c1ccc2c(c1)OCO2`, for which the Activity in the experiment on Rattus norvegicus [1] is on record as <25 mm; with Rattus norvegicus [2], <40 mm.

As for `O=C(O)Cn1c(=O)n(-c2ccc3c(c2)OCO3)c2ncccc21`, the values for the Activity in the experiment on Rattus norvegicus [1] and in the experiment with Rattus norvegicus [2] were <25 mm and <40 mm, respectively.

For `c1cnc2c(c1)nnn2-c1ccc2c(c1)CCC2`, the values for the Activity with Rattus norvegicus [1] and in the experiment on Rattus norvegicus [2] were <25 mm and <40 mm, respectively.

`CCC1(CC)Oc2ccc(-n3c(=O)[nH]c4cccnc43)cc2O1`: the Activity in the experiment with Rattus norvegicus [1] is <25 mm; with Rattus norvegicus [2], <40 mm.

With `CC(=O)OCCn1c(=O)n(-c2ccc3c(c2)OCO3)c2ncccc21`, the Activity was 25 mm with Rattus norvegicus [1] and <40 mm with Rattus norvegicus [2].

On to `c1ccc(CCn2nnc3cccnc32)cc1`, for which the Activity in the experiment on Rattus norvegicus [1] is <25 mm; in the experiment on Rattus norvegicus [2], <40 mm.

Consider `C=CCn1c(=O)n(-c2cccc3c2OCO3)c2ncccc21`, for which the Activity in the experiment with Rattus norvegicus [1] is reported as <25 mm; in the experiment with Rattus norvegicus [2], <40 mm.

Take `O=c1n(C2=NCCS2)c2cccnc2n1-c1ccc2c(c1)OCO2`: the Activity is <25 mm in the experiment on Rattus norvegicus [1] and <40 mm in the experiment on Rattus norvegicus [2].

Turning to `CN(C)c1ccccc1-n1c(=O)[nH]c2cccnc21`, the Activity in the experiment on Rattus norvegicus [1] was <25 mm; in the experiment with Rattus norvegicus [2], <40 mm.

In the case of `O=c1[nH]c2cccnc2n1-c1ccccc1F`, the figures for the Activity in the experiment on Rattus norvegicus [1] and in the experiment with Rattus norvegicus [2] were 25 mm and <40 mm, respectively.

For `NC(=O)c1cccc(-n2nnc3cccnc32)c1`, the Activity in the experiment on Rattus norvegicus [1] is 25 mm; with Rattus norvegicus [2], <40 mm.

For the compound `COc1ccccc1-n1nnc2cccnc21`, the figures for the Activity with Rattus norvegicus [1] and in the experiment with Rattus norvegicus [2] were 25 mm and <40 mm, respectively.

Regarding `Cc1c(Cl)cccc1-n1c(=O)[nH]c2cccnc21`, the Activity in the experiment on Rattus norvegicus [1] was <25 mm; with Rattus norvegicus [2] it was <40 mm.

Regarding `COc1cccc(-n2nnc3cccnc32)c1`, the Activity in the experiment on Rattus norvegicus [1] was <25 mm; in the experiment with Rattus norvegicus [2] it was <40 mm.

In the case of `CC1(C)Oc2ccc(-n3c(=O)[nH]c4cccnc43)cc2O1`, the Activity was <25 mm in the experiment on Rattus norvegicus [1] and <40 mm with Rattus norvegicus [2].

As for `c1cnc2c(c1)nnn2-c1ccncc1`, the Activity with Rattus norvegicus [1] was <25 mm; in the experiment on Rattus norvegicus [2], <40 mm.

With `Clc1ccc(-n2nnc3cccnc32)cc1`, the figures for the Activity in the experiment with Rattus norvegicus [1] and with Rattus norvegicus [2] were <25 mm and <40 mm, respectively.

For the compound `N#Cc1cccc(-n2nnc3cccnc32)c1`, the Activity in the experiment with Rattus norvegicus [1] is listed as <25 mm; in the experiment with Rattus norvegicus [2], <40 mm.

For `O=c1[nH]c2cccnc2n1CCc1ccccc1`, the values for the Activity in the experiment with Rattus norvegicus [1] and in the experiment with Rattus norvegicus [2] were <25 mm and <40 mm, respectively.

Take `CN(C)c1ccc(-n2nnc3cccnc32)cc1`: the values for the Activity in the experiment with Rattus norvegicus [1] and in the experiment with Rattus norvegicus [2] were <25 mm and <40 mm, respectively.

`O=C(O)c1ccc(-n2nnc3cccnc32)cc1`: the figures for the Activity in the experiment with Rattus norvegicus [1] and in the experiment on Rattus norvegicus [2] were <25 mm and <40 mm, respectively.

As to `CCc1ccc(-n2c(=O)[nH]c3cccnc32)cc1`, the Activity is on record as <25 mm in the experiment with Rattus norvegicus [1] and <40 mm in the experiment on Rattus norvegicus [2].

In the case of `FC(F)(F)c1cccc(-n2nnc3cccnc32)c1`, the Activity in the experiment with Rattus norvegicus [1] was 25 mm; with Rattus norvegicus [2], <40 mm.

Turning to `Fc1ccccc1-n1nnc2cc(Cl)cnc21`, the values for the Activity in the experiment with Rattus norvegicus [1] and in the experiment with Rattus norvegicus [2] were 25 mm and <40 mm, respectively.

`O=c1n(Cc2ccccc2)c2cccnc2n1-c1ccc2c(c1)OCO2`: the results for the Activity in the experiment with Rattus norvegicus [1] and in the experiment with Rattus norvegicus [2] were <25 mm and <40 mm, respectively.

On to `CC(=O)Cn1c(=O)n(-c2ccc3c(c2)OCO3)c2ncccc21`, for which the Activity is <25 mm with Rattus norvegicus [1] and <40 mm in the experiment with Rattus norvegicus [2].

Turning to `COC(=O)c1cnc2c(c1)[nH]c(=O)n2-c1ccc2c(c1)OCO2`, the Activity in the experiment with Rattus norvegicus [1] is <25 mm; in the experiment on Rattus norvegicus [2], <40 mm.

`O=c1[nH]c2cccnc2n1Cc1ccc(F)cc1`: the figures for the Activity with Rattus norvegicus [1] and in the experiment with Rattus norvegicus [2] were <25 mm and <40 mm, respectively.

(Values after ChEMBL document CHEMBL3244164, “Synthesis and analgesic activity of 1,3-dihydro-3-(substituted phenyl)imidazo[4,5-b]pyridin-2-ones and 3-(substituted phenyl)-1,2,3-triazolo[4,5-b]pyridines” (J Med Chem, 1978).)
